# Measurements from patent US20240239790A1, “7-Morpholino-1,6-Naphthyridin-5-yl Derivatives and Pharmaceutical Compositions Thereof Useful as DNA-PK Inhibitor” (adMare Therapeutics Society, priority 2021, published 2024).
# Like-named read-outs stand apart in the source and are kept apart here.
# Key:
# [1] = biological target: T1, DNA-PK phosphorylation at Serine 2056 (Homo sapiens, UniProt P78527); assay: Cellular Assay for Inhibition of DNA-PK Phosphorylation at Serine 2056 in FaDu cells (sandwich ELISA, neocarzinostatin); type: cell-based; details: pSer2056 DNA-PK, neocarzinostatin 1 μg/mL, Table 1
# T1 construct: FaDu cells were purchased from ATCC; host or cells: FaDu
# How it was run: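 pSer2056 and total DNA-PK were measured by sandwich ELISA in BCA-normalised FaDu lysates. Cells had 1 h compound exposure (0.3% DMSO), then 2 h with 1 μg/mL final neocarzinostatin. IC50 was fitted (variable slope) to % inhibition scaled against NCS-stimulated and DMSO-only controls.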
# [2] = test system: pDNA-PK induction in HCT116 tumour spheroids; assay: Multicellular tumour spheroid + radiation, pDNA-PK (ser2056) inhibition, immunohistochemical endpoint, HCT116; type: cell-based; details: Homo sapiens, HCT-116, 20 Gy, 2 hours following radiation, 20% O2
# How it was run: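 HCT116 spheroids (~0.5 mm) in MEM/10% FBS, 20% O2, 37° C., pre-incubated 1 h with compound (10 or 5 μM down to 3.5 nM), irradiated 20 Gy, then 2 h further with compound. Cryosections immunostained for pDNA-PK ser2056; EC50 is concentration halving radiation-induced pDNA-PK.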
# [3] = Hepatocyte Stability Assay, mouse hepatocytes; type: in vitro ADME; details: for hepatocyte CLint at 1 uM: male, CD-1, cryopreserved hepatocytes, pH 7.3, mouse hepatocytes 0.7 million cells per mL, 1 uM compound; for Hepatocyte Stability Mouse % rem. 120 min: mouse hepatocytes
# Description: (§1) Cryopreserved mouse hepatocytes were obtained from a pool of 10 or more male CD-1 mice. Cryopreserved human hepatocytes were obtained from a pool of 10 or more donors of mixed gender. Final hepatocyte density was 0.7 million viable cells per mL and test compound concentration was 1 uM with a maximum of 0.01% DMSO. Cryopreserved hepatocytes were thawed, washed, and resuspended in Krebs-Heinslet buffer (pH 7.3). The reaction was initiated by adding the test compound into cell suspension and incubated for 0, […], 1, 1.5, and 2 h, respectively, at 37° C./5% C02. The reaction was stopped by adding acetonitrile into the incubation mixture. Samples were then mixed, transferred completely to another 96-well plate, and centrifuged. Supernatants were used for HPLC-MS/MS analysis. […] Peak areas corresponding to the test compound were recorded.
# [4] = Hepatocyte Stability Assay, human hepatocytes; type: in vitro ADME; details: for hepatocyte CLint at 1 uM: both sexes, cryopreserved hepatocytes, pH 7.3, human hepatocytes 0.7 million cells per mL, 1 uM compound; for Hepatocyte Stability Human % rem. 120 min: human hepatocytes
# Description: as §1
# [5] = Example 9 Study 2, read-out: Spheroid Cell line: HCT116 Immunohistochemical endpoint pDNA-PK inhibition EC50
# [6] = Spheroid, Cell Line: HCT115 (so in the source), Example 7, read-out: EC50, Immunohistochemical endpoint, pDNA-PK inhibition
SMILES,IC50 [1] [nM],"EC50 [2, 5] [nM]","EC50 [2, 6] [nM]",hepatocyte CLint at 1 uM [3] [µL/min/1e6 cells],Hepatocyte Stability Mouse % rem. 120 min [3],hepatocyte CLint at 1 uM [4] [µL/min/1e6 cells],Hepatocyte Stability Human % rem. 120 min [4]
"O=C(COc1cnc(N[C@H]2CC[C@@H](Oc3nc(N4CCOCC4)cc4ncccc34)CC2)nc1)N1CCC1 [Compound 75, 1-(Azetidin-1-yl)-2-((2-(((1s,4s)-4-((7-morpholino-1,6-naphthyridin-5-yl)oxy)cyclohexyl)amino)pyrimidin-5-yl)oxy)ethan-1-one]",< 100,500 to 1000,500 to 1000,< 8.2,G (% remaining = 50-75%),< 8.2,H (% remaining = 75-100%)
"CN(C)C(=O)Cn1ccc2nc(N[C@H]3CC[C@@H](Oc4nc(N5CCOCC5)cc5ncccc45)CC3)ncc21 [Compound 86, N,N-Dimethyl-2-(2-(((1s,4s)-4-((7-morpholino-1,6-naphthyridin-5-yl)oxy)cyclohexyl)amino)-5H-pyrrolo[3,2-d]pyrimidin-5-yl)acetamide]",< 100,10 to 500,10 to 500,< 8.2,H (% remaining = 75-100%),< 8.2,H (% remaining = 75-100%)
"O=c1[nH]c2cnc(N[C@H]3CC[C@@H](Oc4nc(N5CCOCC5)cc5ncccc45)CC3)nc2n1C1CCOCC1 [Compound 95, 2-(((1s,4s)-4-((7-Morpholino-1,6-naphthyridin-5-yl)oxy)cyclohexyl)amino)-9-(tetrahydro-2H-pyran-4-yl)-7,9-dihydro-8H-purin-8-one]",< 100,10 to 500,10 to 500,> 8.2,F (% remaining = 25-50%),> 8.2,F (% remaining = 25-50%)
"Cn1c(=O)n(C2CCOCC2)c2nc(N[C@H]3CC[C@@H](Oc4nc(N5CCOCC5)cc5ncccc45)CC3)ncc21 [Compound 96, 7-Methyl-2-(((1s,4s)-4-((7-morpholino-1,6-naphthyridin-5-yl)oxy)cyclohexyl)amino)-9-(tetrahydro-2H-pyran-4-yl)-7,9-dihydro-8H-purin-8-one]",< 100,500 to 1000,500 to 1000,< 8.2,G (% remaining = 50-75%),> 8.2,F (% remaining = 25-50%)
"CN(C)C(=O)Cn1c(=O)n(C2CCOCC2)c2nc(N[C@H]3CC[C@@H](Oc4nc(N5CCOCC5)cc5ncccc45)CC3)ncc21 [Compound 97, N,N-Dimethyl-2-(2-(((1s,4s)-4-((7-morpholino-1,6-naphthyridin-5-yl)oxy)cyclohexyl)amino)-8-oxo-9-(tetrahydro-2H-pyran-4-yl)-8,9-dihydro-7H-purin-7-yl)acetamide]",< 100,10 to 500,10 to 500,< 8.2,H (% remaining = 75-100%),< 8.2,G (% remaining = 50-75%)
"O=C(Cn1c(=O)n(C2CCOCC2)c2nc(N[C@H]3CC[C@@H](Oc4nc(N5CCOCC5)cc5ncccc45)CC3)ncc21)N1CCOCC1 [Compound 98, 2-(((1s,4s)-4-((7-Morpholino-1,6-naphthyridin-5-yl)oxy)cyclohexyl)amino)-7-(2-morpholino-2-oxoethyl)-9-(tetrahydro-2H-pyran-4-yl)-7,9-dihydro-8H-purin-8-one]",< 100,10 to 500,10 to 500,< 8.2,G (% remaining = 50-75%),> 8.2,F (% remaining = 25-50%)
"O=C(Cn1c(=O)n(C2CCOCC2)c2nc(N[C@H]3CC[C@@H](Oc4nc(N5CCOCC5)cc5ncccc45)CC3)ncc21)N1CCC1 [Compound 99, 7-(2-(Azetidin-1-yl)-2-oxoethyl)-2-(((1s,4s)-4-((7-morpholino-1,6-naphthyridin-5-yl)oxy)cyclohexyl)amino)-9-(tetrahydro-2H-pyran-4-yl)-7,9-dihydro-8H-purin-8-one]",< 100,10 to 500,10 to 500,< 8.2,G (% remaining = 50-75%),> 8.2,F (% remaining = 25-50%)
"Cn1c(=O)[nH]c2cnc(N[C@H]3CC[C@@H](Oc4nc(N5CCOCC5)cc5ncccc45)CC3)nc21 [Compound 100, 9-Methyl-2-(((1s,4s)-4-((7-morpholino-1,6-naphthyridin-5-yl)oxy)cyclohexyl)amino)-7,9-dihydro-8H-purin-8-one]",< 100,10 to 500,10 to 500,> 8.2,E (% remaining = 0-25%),> 8.2,E (% remaining = 0-25%)
"Cn1c(=O)n(C)c2nc(N[C@H]3CC[C@@H](Oc4nc(N5CCOCC5)cc5ncccc45)CC3)ncc21 [Compound 101, 7,9-Dimethyl-2-(((1s,4s)-4-((7-morpholino-1,6-naphthyridin-5-yl)oxy)cyclohexyl)amino)-7,9-dihydro-8H-purin-8-one]",< 100,10 to 500,10 to 500,> 8.2,F (% remaining = 25-50%),> 8.2,F (% remaining = 25-50%)
"CN(C)C(=O)Cn1c(=O)n(C)c2nc(N[C@H]3CC[C@@H](Oc4nc(N5CCOCC5)cc5ncccc45)CC3)ncc21 [Compound 102, N,N-Dimethyl-2-(9-methyl-2-(((1s,4s)-4-((7-morpholino-1,6-naphthyridin-5-yl)oxy)cyclohexyl)amino)-8-oxo-8,9-dihydro-7H-purin-7-yl)acetamide]",< 100,10 to 500,10 to 500,< 8.2,H (% remaining = 75-100%),< 8.2,G (% remaining = 50-75%)
"CN(C)C(=O)COc1ccc(C(=O)N[C@H]2CC[C@@H](Oc3nc(N4CCOCC4)cc4ncccc34)CC2)cn1 [Compound 117, 6-(2-(dimethylamino)-2-oxoethoxy)-N-((1s,4s)-4-((7-morpholino-1,6-naphthyridin-5-yl)oxy)cyclohexyl)nicotinamide]",< 100,500 to 1000,500 to 1000,< 8.2,G (% remaining = 50-75%),< 8.2,G (% remaining = 50-75%)
"CN(C)C(=O)Cn1ccc(C(=O)N[C@H]2CC[C@@H](Oc3nc(N4CCOCC4)cc4ncccc34)CC2)c1 [Compound 141, 1-(2-(dimethylamino)-2-oxoethyl)-N-((1s,4s)-4-((7-morpholino-1,6-naphthyridin-5-yl)oxy)cyclohexyl)-1H-pyrrole-3-carboxamide]",< 100,,10 to 500,< 8.2,G (% remaining = 50-75%),< 8.2,G (% remaining = 50-75%)
